Measured values taken from ChEMBL document CHEMBL1201862, “PubChem BioAssay data set” (2004).
Active and inactive are the calls of the source.

Tests used:
[1] = molecular target: Serine/threonine-protein phosphatase PP1-alpha catalytic subunit (Homo sapiens, UniProt P62136); assay: inhibition of protein phosphatase 1 activity – biochemical, fluorescence, dose response (AID 2394)
SUMO-activating enzyme [2] = molecular target: T1, SUMO-activating enzyme (Homo sapiens, UniProt Q9UBT2); assay: blockers of UBC9-mediated SUMO conjugation – biochemical, AlphaScreen, SUMOylation inhibitor project, confirmation (AID 2018); format: functional
SUMO-activating enzyme [3] = molecular target: T1, SUMO-activating enzyme; assay: blockers of SAE1/SAE2–UBC9 SUMO transfer – biochemical, HTRF, uHTS, primary screen (AID 2006); format: protein-complex assay
[4] = Trypanosoma cruzi growth suppression in host cells – NIH3T3 host cells, beta-gal luminescence, confirmation (AID 2044); format: functional, cell-based;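 note: intracellular parasites grown in NIH/3T3 mouse fibroblasts as host cells; luminescent beta-galactosidase reporter signal from transgenic T. cruzi replicating inside host cells; inhibitors lower the luminescence signal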
[5] = molecular target: Serine/threonine-protein phosphatase (Homo sapiens, UniProt Q9BPW0); assay: inhibition of protein phosphatase 5 activity – biochemical, fluorescence, dose response (AID 2395)
[6] = NIH3T3 cell viability loss – ATP luminescence, mouse fibroblasts, counter-screen, dose response (AID 2010); format: functional, cell-based;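 note: cells exposed to compound for about 90 hours before reading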
[7] = molecular target: Heat shock protein HSP 90-alpha (Homo sapiens, UniProt P07900); assay: Luminescence-based dose response biochemical high throughput screening assay for inhibitors of the Heat Shock Protein 90 (HSP90). [Related pubchem assays: 1831 (Summary AID.), 1846 (Confirmation screen.), 1789 (Primary screen.)]
Hexokinase HKDC1 = molecular target: T2, Hexokinase HKDC1 (Homo sapiens, UniProt Q2TB90); assay: inhibition of HKDC1 glucose phosphorylation – biochemical, W721R variant, dose response (AID 504729); format: functional
T2 sequence (Q2TB90 whole entry): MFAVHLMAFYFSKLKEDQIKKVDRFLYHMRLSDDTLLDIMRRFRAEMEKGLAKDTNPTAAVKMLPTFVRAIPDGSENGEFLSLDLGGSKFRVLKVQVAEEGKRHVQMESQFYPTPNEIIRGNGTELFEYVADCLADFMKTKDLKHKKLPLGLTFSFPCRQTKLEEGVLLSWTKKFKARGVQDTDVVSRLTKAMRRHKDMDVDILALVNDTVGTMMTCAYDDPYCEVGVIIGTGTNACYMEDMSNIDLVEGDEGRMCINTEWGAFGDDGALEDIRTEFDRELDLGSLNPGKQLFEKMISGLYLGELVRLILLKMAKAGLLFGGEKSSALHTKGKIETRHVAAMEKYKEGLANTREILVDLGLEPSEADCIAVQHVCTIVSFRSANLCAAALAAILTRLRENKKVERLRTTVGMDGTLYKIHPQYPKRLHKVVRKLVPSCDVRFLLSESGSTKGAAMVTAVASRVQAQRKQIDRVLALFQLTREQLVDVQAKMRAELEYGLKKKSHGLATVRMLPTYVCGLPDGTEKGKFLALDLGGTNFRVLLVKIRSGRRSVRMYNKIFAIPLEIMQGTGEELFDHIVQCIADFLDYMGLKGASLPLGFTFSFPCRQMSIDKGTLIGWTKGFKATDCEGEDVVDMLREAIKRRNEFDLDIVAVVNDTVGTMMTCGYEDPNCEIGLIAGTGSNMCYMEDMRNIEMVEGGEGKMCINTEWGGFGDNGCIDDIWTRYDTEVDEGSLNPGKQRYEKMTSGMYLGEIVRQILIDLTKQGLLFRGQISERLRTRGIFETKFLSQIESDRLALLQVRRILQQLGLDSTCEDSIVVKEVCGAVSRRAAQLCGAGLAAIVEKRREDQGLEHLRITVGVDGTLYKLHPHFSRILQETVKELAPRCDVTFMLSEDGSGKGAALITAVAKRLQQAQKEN

[8] = molecular target: T3, Apoptotic protease-activating factor 1 (Homo sapiens, UniProt O14727); format: functional
T3 sequence (O14727 whole entry): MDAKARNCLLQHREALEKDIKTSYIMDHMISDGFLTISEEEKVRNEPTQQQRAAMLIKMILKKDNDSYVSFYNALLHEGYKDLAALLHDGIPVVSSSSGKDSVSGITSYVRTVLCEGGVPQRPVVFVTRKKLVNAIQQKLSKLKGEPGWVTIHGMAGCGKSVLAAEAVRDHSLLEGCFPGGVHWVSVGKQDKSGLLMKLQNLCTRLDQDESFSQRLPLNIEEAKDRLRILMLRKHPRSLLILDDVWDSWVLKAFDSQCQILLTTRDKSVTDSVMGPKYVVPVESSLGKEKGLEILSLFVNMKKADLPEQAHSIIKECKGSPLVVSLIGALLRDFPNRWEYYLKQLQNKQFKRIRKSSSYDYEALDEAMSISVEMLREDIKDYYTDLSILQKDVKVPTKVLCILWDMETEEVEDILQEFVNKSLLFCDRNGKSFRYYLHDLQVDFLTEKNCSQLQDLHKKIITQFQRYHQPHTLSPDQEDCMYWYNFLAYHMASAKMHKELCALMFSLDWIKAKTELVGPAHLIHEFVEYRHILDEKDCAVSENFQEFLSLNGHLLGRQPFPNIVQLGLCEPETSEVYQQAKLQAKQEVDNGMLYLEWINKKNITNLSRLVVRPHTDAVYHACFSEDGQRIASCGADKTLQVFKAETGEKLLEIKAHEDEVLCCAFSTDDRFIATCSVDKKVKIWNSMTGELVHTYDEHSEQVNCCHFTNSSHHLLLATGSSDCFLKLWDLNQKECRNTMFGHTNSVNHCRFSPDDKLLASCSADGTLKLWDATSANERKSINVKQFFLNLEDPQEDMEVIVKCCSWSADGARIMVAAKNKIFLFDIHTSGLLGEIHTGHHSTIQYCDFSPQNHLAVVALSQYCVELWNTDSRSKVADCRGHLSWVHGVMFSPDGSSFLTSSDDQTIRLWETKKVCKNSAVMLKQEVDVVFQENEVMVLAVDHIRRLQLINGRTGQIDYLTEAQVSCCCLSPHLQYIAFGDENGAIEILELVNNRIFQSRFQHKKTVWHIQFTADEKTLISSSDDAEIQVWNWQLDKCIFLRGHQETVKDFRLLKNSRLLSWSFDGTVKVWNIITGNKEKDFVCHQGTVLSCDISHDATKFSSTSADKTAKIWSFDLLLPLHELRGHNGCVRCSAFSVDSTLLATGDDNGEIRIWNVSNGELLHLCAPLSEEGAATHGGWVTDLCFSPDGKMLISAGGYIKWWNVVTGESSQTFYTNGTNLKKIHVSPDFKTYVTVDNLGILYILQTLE

INS1 = assay: INS-1E survival protection against cytokine death – cell-based, luminescence, retest, dose response (AID 449756); format: functional; conditions: Rattus norvegicus;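 note: cell death triggered by IL-1 beta plus TNF-alpha plus IFN-gamma mixture; protective hits raise ATP signal compared with cytokine alone wells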
[9] = molecular target: T4, Mitochondrial peptide methionine sulfoxide reductase (Bos taurus, UniProt P54149); format: functional;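 note: absorbance read-out, biochemical high-throughput dose-response screen for MsrA inhibitors, confirmatory; recombinant bovine MsrA coupled to E. coli TrxB with NADPH and selenocystamine; potency is for inhibitors of MsrA activity on DMSO substrate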
T4 sequence (P54149 whole entry): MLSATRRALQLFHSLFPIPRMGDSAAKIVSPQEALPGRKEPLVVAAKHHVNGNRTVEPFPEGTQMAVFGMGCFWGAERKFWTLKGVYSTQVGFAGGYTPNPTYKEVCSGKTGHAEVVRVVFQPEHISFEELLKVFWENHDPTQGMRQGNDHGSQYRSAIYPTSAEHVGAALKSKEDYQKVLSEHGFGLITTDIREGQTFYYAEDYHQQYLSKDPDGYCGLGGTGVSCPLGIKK

[10] = molecular target: Metabotropic glutamate receptor 4 (Rattus norvegicus, UniProt P31423); assay: Modulation of the Metabotropic Glutamate Receptor mGluR4: Rat PAM Potency. [Related pubchem assays (depositor defined):AID2437, AID2807]; format: functional
Tumor necrosis factor = Tumor necrosis factor (Homo sapiens, UniProt P01375); assay: analog potency on TNFa NF-kB signaling – cell-based, revised, SAR follow-up (AID 2337); format: functional
[11] = molecular target: T5, Nucleotide-binding oligomerization domain-containing protein 1 (Homo sapiens, UniProt Q9Y239); assay: blockers of NOD1 pathway activity – revised, SAR follow-up (AID 2333); format: functional
T5 sequence (Q9Y239 whole entry): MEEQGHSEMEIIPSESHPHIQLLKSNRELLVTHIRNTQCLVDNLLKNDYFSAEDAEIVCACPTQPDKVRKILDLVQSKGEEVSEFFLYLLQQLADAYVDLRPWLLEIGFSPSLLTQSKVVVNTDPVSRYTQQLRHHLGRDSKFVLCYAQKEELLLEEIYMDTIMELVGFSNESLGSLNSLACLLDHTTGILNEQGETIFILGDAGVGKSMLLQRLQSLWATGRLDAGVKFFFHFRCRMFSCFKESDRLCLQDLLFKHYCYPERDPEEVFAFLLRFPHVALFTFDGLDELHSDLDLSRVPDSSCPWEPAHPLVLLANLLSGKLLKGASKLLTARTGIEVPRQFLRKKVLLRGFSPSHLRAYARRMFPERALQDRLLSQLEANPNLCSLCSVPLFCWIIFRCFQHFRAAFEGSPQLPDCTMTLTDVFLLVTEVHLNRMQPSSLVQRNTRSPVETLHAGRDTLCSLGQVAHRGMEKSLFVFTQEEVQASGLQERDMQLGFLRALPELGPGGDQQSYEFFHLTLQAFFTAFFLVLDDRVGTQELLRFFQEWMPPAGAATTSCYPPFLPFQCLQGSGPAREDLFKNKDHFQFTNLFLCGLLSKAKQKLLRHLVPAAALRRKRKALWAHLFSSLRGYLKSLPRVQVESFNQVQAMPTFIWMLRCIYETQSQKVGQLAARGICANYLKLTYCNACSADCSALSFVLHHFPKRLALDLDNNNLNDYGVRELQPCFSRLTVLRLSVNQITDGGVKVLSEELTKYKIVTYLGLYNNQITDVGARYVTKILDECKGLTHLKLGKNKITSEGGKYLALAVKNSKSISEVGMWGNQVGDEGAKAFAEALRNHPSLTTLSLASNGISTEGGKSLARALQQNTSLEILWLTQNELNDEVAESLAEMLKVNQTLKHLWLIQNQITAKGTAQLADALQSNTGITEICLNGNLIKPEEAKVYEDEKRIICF

[12] = molecular target: Nucleotide-binding oligomerization domain-containing protein 2 (Homo sapiens, UniProt Q9HC29); assay: PubChem AID 2334; format: functional
[13] = HIV-1 AD8 envelope cell-cell fusion blockers – cherry-pick, dose response (AID 652062); format: functional, cell-based;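 note: luciferase signal from cell-cell fusion driven by HIV-1 clade B AD8 Env; potency is for inhibitors of fusion seen as a drop in luminescence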
HEK293 = assay: cells; conditions: Homo sapiens;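 note: cells exposed to compound for 14 hours overnight before viability readout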

T1 sequence (Q9UBE0 whole entry): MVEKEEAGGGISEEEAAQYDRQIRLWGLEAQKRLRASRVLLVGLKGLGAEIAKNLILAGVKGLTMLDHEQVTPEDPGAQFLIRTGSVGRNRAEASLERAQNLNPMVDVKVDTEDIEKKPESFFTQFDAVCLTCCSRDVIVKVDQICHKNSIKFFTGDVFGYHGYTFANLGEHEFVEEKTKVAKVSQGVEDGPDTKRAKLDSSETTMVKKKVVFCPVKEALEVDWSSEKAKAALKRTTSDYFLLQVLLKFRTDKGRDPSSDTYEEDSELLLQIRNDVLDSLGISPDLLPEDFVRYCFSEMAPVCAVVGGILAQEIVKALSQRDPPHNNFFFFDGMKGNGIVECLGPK
T1 sequence (Q9UBT2 whole entry): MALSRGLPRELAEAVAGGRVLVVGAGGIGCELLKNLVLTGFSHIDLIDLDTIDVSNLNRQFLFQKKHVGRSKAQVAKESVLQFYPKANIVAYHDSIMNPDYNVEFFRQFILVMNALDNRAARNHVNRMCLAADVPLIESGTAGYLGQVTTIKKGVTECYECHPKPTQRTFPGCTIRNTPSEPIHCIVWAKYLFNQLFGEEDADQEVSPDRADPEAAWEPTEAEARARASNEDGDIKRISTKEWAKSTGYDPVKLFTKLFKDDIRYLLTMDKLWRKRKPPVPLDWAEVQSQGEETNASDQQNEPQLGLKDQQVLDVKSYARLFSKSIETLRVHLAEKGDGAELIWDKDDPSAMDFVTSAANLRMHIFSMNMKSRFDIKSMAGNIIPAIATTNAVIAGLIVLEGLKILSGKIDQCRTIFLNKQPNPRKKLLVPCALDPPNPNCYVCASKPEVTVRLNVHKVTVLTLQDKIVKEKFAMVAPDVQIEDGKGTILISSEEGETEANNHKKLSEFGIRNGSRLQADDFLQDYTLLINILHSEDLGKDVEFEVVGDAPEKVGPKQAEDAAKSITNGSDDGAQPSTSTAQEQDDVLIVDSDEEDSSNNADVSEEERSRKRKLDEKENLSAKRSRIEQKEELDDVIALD
Chain of Serine/threonine-protein phosphatase PP1-alpha catalytic subunit (P62136 whole entry): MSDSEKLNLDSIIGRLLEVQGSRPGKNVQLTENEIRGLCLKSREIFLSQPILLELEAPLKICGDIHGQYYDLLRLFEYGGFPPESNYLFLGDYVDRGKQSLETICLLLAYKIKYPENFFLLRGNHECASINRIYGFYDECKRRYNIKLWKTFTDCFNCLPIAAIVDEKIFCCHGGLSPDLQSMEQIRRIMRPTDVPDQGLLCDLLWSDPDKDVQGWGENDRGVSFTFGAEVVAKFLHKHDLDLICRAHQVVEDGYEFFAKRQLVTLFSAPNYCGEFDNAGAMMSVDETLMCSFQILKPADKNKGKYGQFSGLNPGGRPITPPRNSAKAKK
Chain of Tumor necrosis factor (P01375 whole entry, the tested form may be a part): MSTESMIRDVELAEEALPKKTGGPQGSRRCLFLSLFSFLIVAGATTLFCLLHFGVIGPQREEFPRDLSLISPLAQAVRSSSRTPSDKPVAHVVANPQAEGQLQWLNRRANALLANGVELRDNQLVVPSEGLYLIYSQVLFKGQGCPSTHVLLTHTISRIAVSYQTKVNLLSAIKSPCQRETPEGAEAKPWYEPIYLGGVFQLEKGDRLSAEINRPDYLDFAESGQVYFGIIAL
Chain of Nucleotide-binding oligomerization domain-containing protein 2 (Q9HC29 whole entry, the tested form may be a part): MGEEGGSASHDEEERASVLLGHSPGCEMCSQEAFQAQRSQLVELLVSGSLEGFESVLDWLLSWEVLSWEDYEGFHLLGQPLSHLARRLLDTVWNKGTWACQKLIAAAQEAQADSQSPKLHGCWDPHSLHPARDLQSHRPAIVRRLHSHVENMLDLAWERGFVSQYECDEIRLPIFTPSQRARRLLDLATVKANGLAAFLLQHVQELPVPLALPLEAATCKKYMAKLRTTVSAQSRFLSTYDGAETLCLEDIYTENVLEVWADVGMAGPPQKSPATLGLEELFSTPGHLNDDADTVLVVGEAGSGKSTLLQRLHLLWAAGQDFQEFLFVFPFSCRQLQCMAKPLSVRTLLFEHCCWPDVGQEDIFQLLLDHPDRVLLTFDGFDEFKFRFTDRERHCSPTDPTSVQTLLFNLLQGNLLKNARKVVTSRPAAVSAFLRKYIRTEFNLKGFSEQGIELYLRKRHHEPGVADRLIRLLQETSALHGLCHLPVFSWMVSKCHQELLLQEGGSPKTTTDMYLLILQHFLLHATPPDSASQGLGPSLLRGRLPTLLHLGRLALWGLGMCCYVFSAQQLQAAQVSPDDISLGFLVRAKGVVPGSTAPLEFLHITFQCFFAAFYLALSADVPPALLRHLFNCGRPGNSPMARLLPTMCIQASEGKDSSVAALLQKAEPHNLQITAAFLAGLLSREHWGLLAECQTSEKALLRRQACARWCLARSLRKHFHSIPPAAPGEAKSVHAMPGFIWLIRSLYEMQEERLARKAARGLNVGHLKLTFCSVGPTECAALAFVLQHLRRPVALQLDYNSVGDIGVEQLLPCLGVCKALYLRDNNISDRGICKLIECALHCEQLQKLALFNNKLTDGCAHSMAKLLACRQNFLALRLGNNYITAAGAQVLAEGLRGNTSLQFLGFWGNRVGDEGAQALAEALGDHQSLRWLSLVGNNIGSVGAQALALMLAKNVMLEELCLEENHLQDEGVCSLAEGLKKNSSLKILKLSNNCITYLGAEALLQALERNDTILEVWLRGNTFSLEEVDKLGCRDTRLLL
Chain of Serine/threonine-protein phosphatase (Q9BPW0 whole entry): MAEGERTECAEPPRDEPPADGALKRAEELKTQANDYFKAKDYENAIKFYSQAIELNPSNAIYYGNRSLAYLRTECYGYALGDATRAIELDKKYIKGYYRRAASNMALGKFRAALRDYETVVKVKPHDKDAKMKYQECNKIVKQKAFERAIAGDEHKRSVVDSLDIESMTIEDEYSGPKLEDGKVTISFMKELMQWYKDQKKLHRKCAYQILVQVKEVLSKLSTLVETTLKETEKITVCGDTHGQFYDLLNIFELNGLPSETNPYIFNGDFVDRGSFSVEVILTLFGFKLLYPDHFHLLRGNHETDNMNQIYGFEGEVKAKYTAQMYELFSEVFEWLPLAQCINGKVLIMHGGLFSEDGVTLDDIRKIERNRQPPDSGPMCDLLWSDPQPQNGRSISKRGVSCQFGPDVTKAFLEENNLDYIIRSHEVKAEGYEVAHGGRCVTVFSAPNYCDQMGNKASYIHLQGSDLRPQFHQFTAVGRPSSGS
Chain of Metabotropic glutamate receptor 4 (P31423 whole entry): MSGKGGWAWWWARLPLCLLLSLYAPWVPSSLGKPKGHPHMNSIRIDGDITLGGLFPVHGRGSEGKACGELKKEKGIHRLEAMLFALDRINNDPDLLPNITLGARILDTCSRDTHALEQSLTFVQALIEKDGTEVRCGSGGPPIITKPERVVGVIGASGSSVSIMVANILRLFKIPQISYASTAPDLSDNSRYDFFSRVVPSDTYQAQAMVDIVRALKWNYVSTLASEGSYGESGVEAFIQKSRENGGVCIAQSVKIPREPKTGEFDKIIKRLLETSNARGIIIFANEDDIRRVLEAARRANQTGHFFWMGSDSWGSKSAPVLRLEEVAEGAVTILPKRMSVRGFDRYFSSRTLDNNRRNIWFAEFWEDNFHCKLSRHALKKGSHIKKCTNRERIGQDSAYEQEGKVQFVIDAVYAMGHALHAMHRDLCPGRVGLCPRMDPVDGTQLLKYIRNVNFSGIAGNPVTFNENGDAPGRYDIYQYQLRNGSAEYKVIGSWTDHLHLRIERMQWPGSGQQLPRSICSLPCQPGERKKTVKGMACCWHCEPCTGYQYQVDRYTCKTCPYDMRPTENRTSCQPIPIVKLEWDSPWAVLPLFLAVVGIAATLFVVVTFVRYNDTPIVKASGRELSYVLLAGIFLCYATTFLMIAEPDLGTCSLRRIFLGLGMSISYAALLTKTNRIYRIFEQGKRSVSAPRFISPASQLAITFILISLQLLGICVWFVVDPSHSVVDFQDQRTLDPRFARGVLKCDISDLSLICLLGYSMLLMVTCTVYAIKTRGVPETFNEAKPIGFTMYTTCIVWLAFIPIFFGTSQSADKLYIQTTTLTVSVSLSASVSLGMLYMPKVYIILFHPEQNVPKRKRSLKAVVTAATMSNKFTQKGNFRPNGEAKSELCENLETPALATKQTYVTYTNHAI

CC(=O)Nc1ccc(NC2=C/C(=N/S(=O)(=O)c3cccs3)c3ccccc3C2=O)cc1
IC50 [1]: > 67 µM (not active) | IC50 (SUMO-activating enzyme [2]): 1.34 µM (active) | IC50 (SUMO-activating enzyme [3]): > 100 µM (inactive) | EC50 [4]: 3.44 µM (active) | IC50 [5]: 12.3 µM (not active) | EC50 [6]: 3.58 µM (active) | IC50 [7]: 1.61 µM (active) | IC50 (Hexokinase HKDC1): 3.72 µM (active) | IC50 [8]: 1.48 µM (active) | AC50 (INS1): 4.23 µM (active) | IC50 [9]: 14.3 µM (inactive)

O=C(Nc1ccc(N2C(=O)c3ccccc3C2=O)c(Cl)c1)c1ccccn1
EC50 [10]: 0.07 µM (active)

Cc1ccc(NC(=O)c2ccc(CN3CCc4ccccc4C3)cc2)cc1
IC50 (Tumor necrosis factor): > 20 µM (inactive) | IC50 [11]: 3.44 µM (active) | IC50 [12]: > 20 µM (inactive) | AC50 [13]: 5.75 µM (active) | IC50 (HEK293): > 20 µM (inactive)
